Test results as given in US8809303B2, “Methods of regulating actin cytoskeletal rearrangement and intercellular gap formation” (The University of North Carolina at Chapel Hill, priority 2008, dated 2014).

How the values were obtained:
Format in all cases: cell-based
[1] = system: human pulmonary microvascular endothelial cells (HMVECs); assay: Determination of viability for cell culture experiments (LDH activity, CytoTox96 assay) during simulated IRI; conditions: controls vs treated groups, all time points of simulated IRI
Protocol: In separate experiments performed in triplicate, HMVECs grown to confluence on P35 dishes underwent simulated IRI. At the same time points, cells and cell culture media or Ringer's lactate were assessed for lactate dehydrogenase (LDH) activity using the CytoTox96 Non-Radioactive Cytotoxicity Assay (Promega, Madison, Wis., United States of America) following the manufacturer's instructions. Control samples were also taken at time zero and 24 hours to assess cell viability apart from the experimental model. Culture medium and Ringer's lactate were used as background controls to normalize the absorbance value from the other samples. Cytotoxicity was calculated as media LDH activity divided by total LDH activity (cell pellet plus media). Viability was the inverse and expressed as percent viability at each time point.

[2] = system: human pulmonary microvascular endothelial cells (HMVECs); assay: Cell culture model of warm lung IRI: simulated warm ischemia and reperfusion, phalloidin staining and image analysis; conditions: 1 μg/mL CRX-526 vs vehicle
Protocol: An in vitro normothermic (37° C.) model of IRI employing nutrient depletion in 100% oxygen to model ischemia was developed, with reperfusion modeled by supplying fresh medium to culture dishes in sealed PLEXIGLAS® containers. Human pulmonary microvascular endothelial cells (HMVECs) (Cambrex Bio Science, Walkersville, Md., United States of America) maintained in CLONETICS® EGM-2MV BULLETKITS® (Cambrex Bio Science, Walkersville, Md., United States of America), at 37° C. in a humidified incubator in 5% CO2 were seeded at 2000 cells/cm^2 on collagen-coated 30 mm diameter glass bottom dish coverslips (Mattek Corp., Ashland, Mass., United States of America) and grown until 100% confluent. Sealed PLEXIGLAS® containers housing culture dishes at 37° C. were ventilated with 95% O2/5% CO2. To model warm ischemia (WI), cell medium was suddenly replaced with 2 mL nutrient-depleted, pyrogen-free clinical grade Ringer's lactate. Dishes were pre-treated with 1 μg/mL CRX-526 (GlaxoSmithKline, Duluth, Minn., United States of America) or vehicle (2% glycerin), one hour before WI. CRX-526 or vehicle was added whenever medium was changed. After 1 hour of simulated WI, Ringer's lactate was replaced with EGM2-MV pyrogen-free medium to simulate reperfusion, ventilating the chamber with 5% CO2 in room air. Dishes were removed in triplicate during WI and reperfusion, and immediately fixed in 4% paraformaldehyde for phalloidin staining. Cells with inhibitor or vehicle maintained in EGM2-MV medium at 37° C. in humidified 5% CO2 incubator served as controls. Culture medium was changed at the same time that medium was changed in experimental dishes. Probes inserted through sealed ports continuously recorded temperature, and pH in a representative dish in the PLEXIGLAS® box using voltmeters with data output recorded by PicoRecorded software (Pico Technology, St. Neots, United Kingdom).
HMVECs were fixed in 4% paraformaldehyde for 10 minutes at room temperature and washed 3 times with PBS. Cells were incubated for 1 hour with a 1/100 dilution of ALEXAFLOR® 568 phalloidin (Invitrogen, Carlsbad, Calif., United States of America) in PBS with 1% BSA and 0.05% Tween-20. Coverslips stained for F-actin were immediately examined with a Leica DMIRB Inverted Fluorescence/DIC microscope (Leica Microsystems, Inc., Bannockburn, Ill., United States of America) at 20× and 40× magnification to evaluate changes in cell shape and F-actin cytoskeleton. For each dish, three pictures were taken of contiguous fields near the center of the dish at 40× with a Kodak (Rochester, N.Y., United States of America) digital camera at the same exposure time. A masked observer assessed actin stress fiber pattern of each cell as normal or abnormal. Quantitative analysis of gap area was performed using METAMORPH® software (MDS Analytical Technologies, Inc., Sunnyvale, Calif., United States of America).
As described in Example 1, HMVECs grown to confluence on P30 dishes with integral cover slips were incubated with 1 μg/mL CRX-526 or vehicle, ventilated with 95% O2/5% CO2. Media was replaced with warm (37° C.)
Ringer's lactate and ventilated with 100% O2 to simulate warm ischemia. One hour later, Ringer's lactate was replaced with warm cell culture media, and chambers were ventilated with 95% room air/5% CO2 to simulate reperfusion. […]

[3] = system: human pulmonary microvascular endothelial cells (HMVECs); assay: Simulated cold IRI: cold ischemia in 4° C. PERFADEX, gaps in monolayer; conditions: CRX-526 pre-incubation; 4 hours of cold ischemia in 4° C. PERFADEX; FIG. 2A, 2B
Protocol: FIG. 2A is a series of photographs of (from left to right) human pulmonary microvascular endothelial cells (HMVECs) in warm (37° C.) cell culture media (Control), of HMVECs after four hours of cold ischemia (CI) in 4° C. cell culture media (Media 4 hr CI), of HMVECs after four hours of cold ischemia in 4° C. PERFADEX™ (Vitrolife, Kungsbacka, Sweden) pulmonary preservation solution (Vehicle 4 hr CI), and of HMVECs that had been pre-incubated with CRX-526 and undergone four hours of cold ischemia in 4° C. PERFADEX™ (Vitrolife, Kungsbacka, Sweden) with CRX-526 (CRX-526 4 hr CI). The photographs are representative of 9 images taken for each set of conditions.
FIG. 2B is a graph of the % area of gaps in the monolayer of human pulmonary microvascular endothelial cells (HMVECs) in cell culture media (Media), vehicle (i.e., PERFADEX™ (Vitrolife, Kungsbacka, Sweden)) or in vehicle after a 1 hour pre-treatment with CRX-526 and following either four hours of cold ischemia (4 hr CI), 1 hour of warm ischemia (WI), or following 1 hour of warm ischemia and 15 min, 1 hr, or 4 hr of reperfusion (15 min rep, 1 hr rep, and 4 hr rep, respectively). Data for the HMVECs in cell culture media without vehicle is shown in the open bars. […] The % gap area was quantified by MetaMorph® software (MDS Analytical Technologies, Inc., Sunnyvale, Calif., United States of America). *=p<0.01. […]

For CCCCCCCCCCC[C@H](CC(=O)N[C@H]1[C@H](OC[C@H](NC(=O)C[C@@H](CCCCCCCCCCC)OC(=O)CCCCC)C(=O)O)O[C@H](CO)[C@@H](OP(=O)(O)O)[C@@H]1OC(=O)C[C@@H](CCCCCCCCCCC)OC(=O)CCCCC)OC(=O)CCCCC [CRX-526], the “cell viability, quantified by LDH assay” value [1] was “equivalent”, the “peripheral orientation of actin” value ([2]; after 15 minutes simulated reperfusion, FIG. 1C) was “significantly reduced” and the “recovery of monolayer confluence” value ([2]; after simulated reperfusion, FIG. 1B) was “regained confluence more quickly”. The “area of monolayer gaps” value ([2]; during simulated warm ischemia, FIG. 1B) was “significantly reduced”, the “peripheral orientation of actin” value ([2]; following 60 minutes of WI, FIG. 1C) was “significantly reduced” and the “percentage of cells with altered actin cytoskeleton” value ([2]; monolayers in simulated warm IRI, FIG. 1C) was “decreased”. For the same molecule, the gaps in monolayer [3] was “much less obvious”.
